Results taken from patent US10954461B2, “Methods for preventing microbial growth and microbiologically influenced corrosion in a biodegradable and/or renewable fuel, hydraulic fluid and/or lubricant” (TRIBORON INTERNATIONAL AB, priority 2016, dated 2021).

Assays:
[1] = system: microbial growth; conditions: lowest tested concentration (1:2000, 44 ppm boric acid, 7.5 ppm boron); HVO and RME with lake water; initial results
[2] = based on available in vitro data; SCCS opinion 2010; cited from earlier work

SMILES: OB(O)O [boric acid]
- effect on microbial growth in contaminated samples [1]: marked effect
- mutagenicity [2]: non-mutagenic
